Measured values taken from US10479780B2, “Aminopyrazole derivatives” (Chugai Seiyaku Kabushiki Kaisha, priority 2015, dated 2019).

Tests used:
Assay type in all cases: biochemical
human Yes1 enzyme = biological target: T1, human Yes1 enzyme (Homo sapiens, UniProt P07947); test: Yes1 enzyme inhibitory activity (time-resolved fluorometry, biotinylated peptide phosphorylation); details: read-out: YES_IC50
T1 construct: made in house
Summary of the method: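 Inhibition was expressed against a compound-free control to give IC50, using TR-FRET read-out (Eu-cryptate anti-pTyr antibody, streptavidin-XL665).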

human Src enzyme = biological target: T2, human Src enzyme (Homo sapiens, UniProt P12931); test: Src enzyme inhibitory activity (time-resolved fluorometry, biotinylated peptide phosphorylation); details: read-out: SRC_IC50
T2 construct: purchased Carna Biosciences, Inc. 08-173
T2 sequence (P12931 whole entry): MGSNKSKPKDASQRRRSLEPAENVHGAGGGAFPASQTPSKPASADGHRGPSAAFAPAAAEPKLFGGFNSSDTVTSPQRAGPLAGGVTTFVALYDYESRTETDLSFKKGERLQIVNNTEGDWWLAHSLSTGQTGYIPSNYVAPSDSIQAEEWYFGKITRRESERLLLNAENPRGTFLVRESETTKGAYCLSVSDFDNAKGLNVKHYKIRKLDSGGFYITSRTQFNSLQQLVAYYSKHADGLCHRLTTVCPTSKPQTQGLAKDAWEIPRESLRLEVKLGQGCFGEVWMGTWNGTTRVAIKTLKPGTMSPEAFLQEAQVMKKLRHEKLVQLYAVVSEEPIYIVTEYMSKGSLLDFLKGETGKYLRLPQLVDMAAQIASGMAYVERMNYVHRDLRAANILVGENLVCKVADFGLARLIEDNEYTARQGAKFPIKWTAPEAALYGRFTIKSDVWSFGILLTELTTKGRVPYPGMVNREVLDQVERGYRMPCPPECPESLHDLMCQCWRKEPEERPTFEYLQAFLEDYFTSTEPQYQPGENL
Summary of the method: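 Compounds were tested for blocking tyrosine phosphorylation of a biotinylated peptide substrate by recombinant human Src. Phosphorylated product was quantified by time-resolved fluorometry using europium cryptate and XL665 conjugates, and IC50 was calculated against the compound-free control.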

human Lck enzyme = biological target: T3, human Lck enzyme (Homo sapiens, UniProt P06239); test: Lck enzyme inhibitory activity (time-resolved fluorometry, biotinylated peptide phosphorylation); details: read-out: LCK_IC50
T3 construct: purchased Carna Biosciences, Inc. 08-170
T3 sequence (P06239 whole entry): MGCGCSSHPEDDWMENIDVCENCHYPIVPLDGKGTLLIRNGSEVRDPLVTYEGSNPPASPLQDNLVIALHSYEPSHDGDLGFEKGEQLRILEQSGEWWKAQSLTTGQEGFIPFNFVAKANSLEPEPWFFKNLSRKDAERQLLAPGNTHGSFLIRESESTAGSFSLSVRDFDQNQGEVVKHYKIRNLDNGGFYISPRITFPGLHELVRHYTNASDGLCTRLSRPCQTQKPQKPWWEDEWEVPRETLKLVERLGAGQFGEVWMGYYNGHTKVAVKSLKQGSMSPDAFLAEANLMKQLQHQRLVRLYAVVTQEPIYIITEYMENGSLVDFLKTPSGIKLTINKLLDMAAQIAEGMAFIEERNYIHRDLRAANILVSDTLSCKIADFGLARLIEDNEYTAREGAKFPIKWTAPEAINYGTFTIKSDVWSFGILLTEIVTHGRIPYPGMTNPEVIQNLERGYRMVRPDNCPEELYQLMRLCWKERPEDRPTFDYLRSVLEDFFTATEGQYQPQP
Summary of the method: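 Readout pairs a europium cryptate-labelled anti-phosphotyrosine antibody with XL665-streptavidin, measured by time-resolved fluorescence. IC50 derived from percent inhibition against untreated controls.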

T1 sequence (P07947 whole entry): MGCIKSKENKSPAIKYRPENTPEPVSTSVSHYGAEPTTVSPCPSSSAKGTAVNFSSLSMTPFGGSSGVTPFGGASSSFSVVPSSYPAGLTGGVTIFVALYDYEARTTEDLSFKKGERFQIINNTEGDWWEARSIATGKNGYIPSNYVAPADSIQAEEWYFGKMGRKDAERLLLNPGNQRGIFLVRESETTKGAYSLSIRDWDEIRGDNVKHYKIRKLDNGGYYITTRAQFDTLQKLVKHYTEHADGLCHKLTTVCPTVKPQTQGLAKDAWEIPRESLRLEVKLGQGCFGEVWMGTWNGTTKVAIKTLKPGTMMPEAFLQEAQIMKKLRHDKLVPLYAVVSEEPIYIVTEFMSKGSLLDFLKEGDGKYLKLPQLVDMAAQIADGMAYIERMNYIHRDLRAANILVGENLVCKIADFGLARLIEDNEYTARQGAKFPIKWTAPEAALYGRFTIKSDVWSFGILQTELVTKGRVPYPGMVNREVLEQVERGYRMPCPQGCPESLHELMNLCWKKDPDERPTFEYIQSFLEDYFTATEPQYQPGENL

SMILES	IC50 (human Yes1 enzyme)	IC50 (human Src enzyme)	IC50 (human Lck enzyme)
Cc1cc(-n2ncc(C(=O)c3cc4cc(OCC(F)F)c(-c5cncnc5)cc4[nH]3)c2N)ccc1Oc1ccccc1F [Example 5-1-261, [5-amino-1-[4-(2-fluorophenoxy)-3-methylphenyl]pyrazol-4-yl]-[5-(2,2-difluoroethoxy)-6-pyrimidin-5-yl-1H-indol-2-yl]methanone]	0.0079 µM	0.39 µM	0.2 µM
Cc1cc(Oc2c(F)cccc2F)ncc1-n1ncc(C(=O)c2cc3cc(OCC(F)F)c(-c4cncnc4)cc3[nH]2)c1N [Example 5-1-262, [5-amino-1-[6-(2,6-difluorophenoxy)-4-methylpyridin-3-yl]pyrazol-4-yl]-[5-(2,2-difluoroethoxy)-6-pyrimidin-5-yl-1H-indol-2-yl]methanone]	0.0023 µM	0.0064 µM	0.012 µM
Cc1cc(-n2ncc(C(=O)c3cc4cc(OCC(F)F)c(-c5cnn(C)c5)cc4[nH]3)c2N)ccc1Oc1ccccc1F [Example 5-1-263, [5-amino-1-[4-(2-fluorophenoxy)-3-methylphenyl]pyrazol-4-yl]-[5-(2,2-difluoroethoxy)-6-(1-methylpyrazol-4-yl)-1H-indol-2-yl]methanone]	0.019 µM	2.6 µM	0.71 µM
Cc1cc(Oc2c(F)cccc2F)ncc1-n1ncc(C(=O)c2cc3cc(OCC(F)F)c(-c4cnn(C)c4)cc3[nH]2)c1N [Example 5-1-264, [5-amino-1-[6-(2,6-difluorophenoxy)-4-methylpyridin-3-yl]pyrazol-4-yl]-[5-(2,2-difluoroethoxy)-6-(1-methylpyrazol-4-yl)-1H-indol-2-yl]methanone]	0.0052 µM	0.026 µM	0.021 µM
Cc1cc(Oc2ccccc2F)ccc1-n1ncc(C(=O)c2cc3cc(F)c(N4C(=O)[C@@H]5C[C@H](NC(=O)OCC6c7ccccc7-c7ccccc76)CN5C4=O)cc3[nH]2)c1N [Example 5-1-265, 9H-fluoren-9-ylmethyl N-[(6S,7aS)-2-[2-[5-amino-1-[4-(2-fluorophenoxy)-2-methylphenyl]pyrazole-4-carbonyl]-5-fluoro-1H-indol-6-yl]-1,3-dioxo-5,6,7,7a-tetrahydropyrrolo[1,2-c]imidazol-6-yl]carbamate]	0.0054 µM	0.44 µM	0.038 µM
Cc1cc(Oc2ccccc2F)ccc1-n1ncc(C(=O)c2cc3cc(C(C)C)c(N)cc3[nH]2)c1N [Example 5-1-266, [5-amino-1-[4-(2-fluorophenoxy)-2-methylphenyl]pyrazol-4-yl]-(6-amino-5-propan-2-yl-1H-indol-2-yl)methanone]	0.0021 µM	0.011 µM	0.011 µM
Cc1cc(Oc2ccccc2F)ccc1-n1ncc(C(=O)c2cc3cc(C(C)C)c(NS(C)(=O)=O)cc3[nH]2)c1N [Example 5-1-267, N-[2-[5-amino-1-[4-(2-fluorophenoxy)-2-methylphenyl]pyrazole-4-carbonyl]-5-propan-2-yl-1H-indol-6-yl]methanesulfonamide]	0.002 µM	0.021 µM	0.017 µM
Cc1cc2cc(C(=O)c3cnn(-c4ccc(Oc5ccccc5F)cc4C)c3N)[nH]c2cc1N1C(=O)[C@@H]2C[C@H](NC(=O)OCC3c4ccccc4-c4ccccc43)CN2C1=O [Example 5-1-268, 9H-fluoren-9-ylmethyl N-[(6S,7aS)-2-[2-[5-amino-1-[4-(2-fluorophenoxy)-2-methylphenyl]pyrazole-4-carbonyl]-5-methyl-1H-indol-6-yl]-1,3-dioxo-5,6,7,7a-tetrahydropyrrolo[1,2-c]imidazol-6-yl]carbamate]	0.012 µM	0.12 µM	0.031 µM
Cc1cc2cc(C(=O)c3cnn(-c4cnc(Oc5c(F)cccc5F)cc4C)c3N)[nH]c2cc1NS(=O)(=O)C1CCOCC1 [Example 5-1-269, N-[2-[5-amino-1-[6-(2,6-difluorophenoxy)-4-methylpyridin-3-yl]pyrazole-4-carbonyl]-5-methyl-1H-indol-6-yl]oxane-4-sulfonamide]	0.002 µM	0.11 µM	0.023 µM
Cc1cc(Oc2ccccc2F)ccc1-n1ncc(C(=O)c2cc3cc(OCC(F)F)c(N4C(=O)[C@@H]5C[C@@H](NC(=O)OCC6c7ccccc7-c7ccccc76)CN5C4=O)cc3[nH]2)c1N [Example 5-1-270, 9H-fluoren-9-ylmethyl N-[(6R,7aS)-2-[2-[5-amino-1-[4-(2-fluorophenoxy)-2-methylphenyl]pyrazole-4-carbonyl]-5-(2,2-difluoroethoxy)-1H-indol-6-yl]-1,3-dioxo-5,6,7,7a-tetrahydropyrrolo[1,2-c]imidazol-6-yl] carbamate]	0.0047 µM	0.13 µM	0.028 µM
Cc1cc(Oc2ccccc2F)ccc1-n1ncc(C(=O)c2cc3cc(OCC(F)F)c(N4C(=O)NC5(CCNCC5)C4=O)cc3[nH]2)c1N [Example 5-1-271, 3-[2-[5-amino-1-[4-(2-fluorophenoxy)-2-methylphenyl]pyrazole-4-carbonyl]-5-(2,2-difluoroethoxy)-1H-indol-6-yl]-1,3,8-triazaspiro [4.5]decane-2,4-dione]	0.00051 µM	0.0072 µM	0.0032 µM
Cc1cc(Oc2ccccc2F)ccc1-n1ncc(C(=O)c2cc3cc(OCC(F)F)c(N4C(=O)NC5(CCN(C6COC6)CC5)C4=O)cc3[nH]2)c1N [Example 5-1-272, 3-[2-[5-amino-1-[4-(2-fluorophenoxy)-2-methylphenyl]pyrazole-4-carbonyl]-5-(2,2-difluoroethoxy)-1H-indol-6-yl]-8-(oxetan-3-yl)-1,3,8-triazaspiro[4.5]decane-2,4-dione]	0.00065 µM	0.0078 µM	0.0042 µM
Cc1cc(Oc2ccccc2F)ccc1-n1ncc(C(=O)c2cc3cc(OCC(F)F)c(N4C(=O)[C@@H]5C[C@H](NC(=O)OCc6ccccc6)CN5C4=O)cc3[nH]2)c1N [Example 5-1-273, Benzyl N-[(6S,7aS)-2-[2-[5-amino-1-[4-(2-fluorophenoxy)-2-methylphenyl]pyrazole-4-carbonyl]-5-(2,2-difluoroethoxy)-1H-indol-6-yl]-1,3-dioxo-5,6,7,7a-tetrahydropyrrolo[1,2-c]imidazol-6-yl]carbamate]	0.0018 µM	0.033 µM	0.015 µM
Cc1cc(Oc2ccccc2F)ccc1-n1ncc(C(=O)c2cc3cc(OCC(F)F)c(N4C(=O)[C@@H]5C[C@H](NC(=O)OCC(C)C)CN5C4=O)cc3[nH]2)c1N [Example 5-1-274, 2-methylpropyl N-[(6S,7aS)-2-[2-[5-amino-1-[4-(2-fluorophenoxy)-2-methylphenyl]pyrazole-4-carbonyl]-5-(2,2-difluoroethoxy)-1H-indol-6-yl]-1,3-dioxo-5,6,7,7a-tetrahydropyrrolo[1,2-c]imidazol-6-yl]carbamate]	0.0021 µM	0.045 µM	0.017 µM
Cc1cc(Oc2ccccc2F)ccc1-n1ncc(C(=O)c2cc3cc(OCC(F)F)c(N4C(=O)[C@@H]5C[C@H](NS(=O)(=O)Cc6ccccc6)CN5C4=O)cc3[nH]2)c1N [Example 5-1-275, N-[(6S,7aS)-2-[2-[5-amino-1-[4-(2-fluorophenoxy)-2-methylphenyl]pyrazole-4-carbonyl]-5-(2,2-difluoroethoxy)-1H-indol-6-yl]-1,3-dioxo-5,6,7,7a-tetrahydropyrrolo[1,2-c]imidazol-6-yl]-1-phenylmethanesulfonamide]	0.00064 µM	0.019 µM	0.007 µM
Cc1cc(Oc2ccccc2F)ccc1-n1ncc(C(=O)c2cc3cc(OCC(F)F)c(N4C(=O)[C@@H]5C[C@H](NS(=O)(=O)c6ccc7ccccc7c6)CN5C4=O)cc3[nH]2)c1N [Example 5-1-276, N-[(6S,7aS)-2-[2-[5-amino-1-[4-(2-fluorophenoxy)-2-methylphenyl]pyrazole-4-carbonyl]-5-(2,2-difluoroethoxy)-1H-indol-6-yl]-1,3-dioxo-5,6,7,7a-tetrahydropyrrolo[1,2-c]imidazol-6-yl]naphthalene-2-sulfonamide]	0.0022 µM	0.087 µM	0.035 µM
Cc1cc(Oc2ccccc2F)ccc1-n1ncc(C(=O)c2cc3cc(OCC(F)F)c(N4C(=O)NC5(CCN(Cc6ccccc6)CC5)C4=O)cc3[nH]2)c1N [Example 5-1-277, 3-[2-[5-amino-1-[4-(2-fluorophenoxy)-2-methylphenyl]pyrazole-4-carbonyl]-5-(2,2-difluoroethoxy)-1H-indol-6-yl]-8-benzyl-1,3,8-triazaspiro[4.5]decane-2,4-dione]	0.0015 µM	0.039 µM	0.012 µM
Cc1cc(Oc2ccccc2F)ccc1-n1ncc(C(=O)c2cc3cc(OCC(F)F)c(N4C(=O)[C@@H]5C[C@H](NC(=O)OCc6ccco6)CN5C4=O)cc3[nH]2)c1N [Example 5-1-278, furan-2-ylmethyl ((6S,7aS)-2-(2-(5-amino-1-(4-(2-fluorophenoxy)-2-methylphenyl)-1H-pyrazole-4-carbonyl)-5-(2,2-difluoroethoxy)-1H-indol-6-yl)-1,3-dioxohexahydro-1H-pyrrolo[1,2-c]imidazol-6-yl)carbamate]	0.0012 µM	0.023 µM	0.0087 µM
Cc1cc(Oc2ccccc2F)ccc1-n1ncc(C(=O)c2cc3cc(OCC(F)F)c(NC(=O)OCC4c5ccccc5-c5ccccc54)cc3[nH]2)c1N [Example 5-1-279, 9H-fluoren-9-ylmethyl N-[2-[5-amino-1-[4-(2-fluorophenoxy)-2-methylphenyl]pyrazole-4-carbonyl]-5-(2,2-difluoroethoxy)-1H-indol-6-yl] carbamate]	0.014 µM	0.91 µM	0.17 µM
